Earlier results as cited in patent publication US20210022994A1, “SUSTAINED RELEASE TREPOSTINIL-COMPOUND MICROPARTICLE COMPOSITIONS” (Lupin Holdings, B.V., priority 2019, published 2021).

Details: in human plasma

For `CCCCC[C@H](O)CC[C@@H]1[C@H]2Cc3cccc(OCC(=O)O)c3C[C@H]2C[C@H]1O` [treprostinil, (1R,2R,3aS,9aS)-[[2,3,3a,4,9,9a-hexahydro-2-hydroxy-1-[(3S)-3-hydroxyoctyl]-1Hbenz[f]inden-5-yl]oxy]acetic acid], the half-life is listed as 2 to 4 h.
